Measured values from patent US20030166598A1, “Medicines for treating tumoral pathologies containing the ro5-4864 compound and an apoptosis-inducing agent” (priority 2000, published 2003).

Key:
[1] = tested on: SHEP-control (neuroblastoma transfected with a control vector); assay: Cell viability (methylene blue test) with CH11 anti-FasR antibody, SHEP-control line; assay type: cell-based, human
Protocol: (§1) The human lines Jurkat (lymphoid T), SHEP (neuroblastoma) transfected with a control vector or with a bcl-2 or bcl-XL vector, 143N2 (osteosarcoma) and SNB79 (glioblastoma) were cultured in DMEM or RPMI 1640 (Sigma Chemical Co., St Louis, Mo.) supplemented with FCS 10% (Dutscher, Brumath, France), penicillin G (10^2 IU/mI)+streptomycin (50 μg/ml) (Sigma) and L-glutamine ([…], Sigma).
(§2) The cells were cultured in the presence of anti-Fas receptor antibody CH11 (1 μg/ml; Immunotech, Marseilles, France) concomitantly or after exposure to RO5-4864 (BioBlock Scientific, Illkirch, France), diazepam (Roche, Neuilly sur Seine, France), or PK11195 (BioBlock), at various concentrations.
(§3) Cell viability was measured by testing with methylene blue (Dimanche-Boitrel et al., 1992).
(§4) 2. FIG. 2: culture of the SHEP control lines (SHEP.control), of SHEP lines transfected with bcl2 (SHEP.Bcl2), and of SHEP lines transfected with bclXL (SHEP.BClXL), in the presence of CH11 with (black histograms) or without (grey histograms) RO5-4864. Evaluation of cell viability (test with methylene blue; percentage of cells on ordinate), as a function of the concentration of RO5-4864 (0, 100 μM or RO100, 200 μM or RO 200).

143N2 (osteosarcoma) = assay: Cell viability (methylene blue test) with CH11 anti-FasR antibody, 143N2 line; assay type: cell-based, human
Protocol: as §1, §2, §3
3. FIG. 3: culture of the 143N2 line in the presence of CH11 with (black histograms) or without (grey histograms) RO5-4864, PK11195 or diazepam. Evaluation of cell viability (test with methylene blue; percentage of cells on ordinate), as a function of the concentration of RO5-4864 (100 μM or RO 100, 200 μM or RO 200), PK11195 (50 μM or PK50, 80 μM or PK 80) and DIAZEPAM (50 μM or DIA50, 80 μM or DIA80).

Jurkat (lymphoid T) = assay: Quantification of apoptosis in Jurkat cells cultured with anti-Fas receptor antibody CH11 and PBR ligands; assay type: cell-based, human; conditions: for potentiation of the apoptotic effect of the CH11 anti-FasR antibody: FIGS. 1A and 1B; for proportion of subdiploid (apoptotic) cells: ligand at 60 μM in combination with CH11 anti-FasR antibody
Protocol: as §1, §2
Lipophilic fluorochrome DiOC6(3) (Molecular Probes, Eugene, Oreg.) was used for measuring the membrane potential of the mitochondria (Δψm). Briefly, the cells were incubated for 15 min at 37° C. in the presence of 40 nM of DiOC6(3), with immediate analysis of the incorporation of fluorescence on a type Epics Profile II cytofluorometer (Coulter, Miami, Fla.). Hydroethydine (HE) (2 μM, 15 min at 37° C., Molecular Probes) was used for measuring the production of superoxide anion (Marchetti et al., 1996). Finally, the proportion of cells that had lost part of the chromosomal DNA (subdiploid cells) was determined with propidium iodide on cells fixed in ethanol (Nicoletti et al., 1991).
1. FIG. 1: culture of Jurkat cells in the presence of CH11 with (white histograms) or without (black histograms) RO5-4864, PK11195 or diazepam.

SHEP bcl-XL = assay: Cell viability (methylene blue test) with CH11 anti-FasR antibody, SHEP bcl-XL line; assay type: cell-based, human
Protocol: as §1, §2, §3, §4

SHEP-bcl-2 = assay: Cell viability (methylene blue test) with CH11 anti-FasR antibody, SHEP-bcl-2 line; assay type: cell-based, human
Protocol: as §1, §2, §3, §4

SNB79 (glioblastoma) = assay: Cell viability (methylene blue test) with CH11 anti-FasR antibody, SNB79 line; assay type: cell-based, human
Protocol: as §1, §2, §3
4. FIG. 4: culture of the SNB79 line in the presence of CH11 with (•) or without (o) RO5-4864. Evaluation of cell viability (test with methylene blue; percentage of cells on the ordinate), as a function of the concentration (μM) of Ro5-4864.

[2] = tested on: SCLC61 small-cell bronchial carcinoma; assay: SCLC61 human tumour xenotransplanted in nude mice, tumour growth; assay type: in vivo, mouse
[3] = tested on: SCLC6 small-cell bronchial carcinoma; assay: SCLC6 human tumour xenotransplanted in nude mice, tumour growth; assay type: in vivo, mouse; conditions: etoposide 12 mg/kg/day + ifosfamide 90 mg/kg/day D1 to D3 + RO5-4864 40 mg/kg/day D1 to D3, p<0.05

Compound	reversal of resistance to the CH11 anti-FasR antibody [1]	reversal of resistance to the CH11 anti-FasR antibody (143N2 (osteosarcoma))	potentiation of the apoptotic effect of the CH11 anti-FasR antibody (Jurkat (lymphoid T))	proportion of subdiploid (apoptotic) cells (Jurkat (lymphoid T)) [%]	reversal of resistance to the CH11 anti-FasR antibody (SHEP bcl-XL)	reversal of resistance to the CH11 anti-FasR antibody (SHEP-bcl-2)	reversal of resistance to the CH11 anti-FasR antibody (SNB79 (glioblastoma))	tumour growth ([2]; RO5-4864 alone, 12 mg/kg/day s.c. D1 to D3)	antitumour effect of etoposide with concomitant RO5-4864 ([2]; etoposide 12 mg/kg/day i.p. D1 to D3 + RO5-4864 12 mg/kg/day s.c. D1 to D3, p<0.005)	antitumour effect of the chemotherapy with RO5-4864 [3]
CCC(C)N(C)C(=O)c1cc2ccccc2c(-c2ccccc2Cl)n1 (stereo not drawn) [PK11195]	observed	only observed with diazepam and PK11195 on the line SHEP-control	potentiate the apoptotic effect	25	only observed with diazepam and PK11195 on the line SHEP-control	only observed with diazepam and PK11195 on the line SHEP-control	only observed with diazepam and PK11195 on the line SHEP-control			
CN1C(=O)CN=C(c2ccc(Cl)cc2)c2cc(Cl)ccc21 [RO5-4864, 4′-chlorodiazepam]	reverses the resistance	reverses the resistance	potentiate the apoptotic effect	73	reverses the resistance	reverses the resistance	reverses the resistance	not altered	increased	increased
CN1C(=O)CN=C(c2ccccc2)c2cc(Cl)ccc21 [diazepam]	observed	only observed with diazepam and PK11195 on the line SHEP-control	potentiate the apoptotic effect	20	only observed with diazepam and PK11195 on the line SHEP-control	only observed with diazepam and PK11195 on the line SHEP-control	only observed with diazepam and PK11195 on the line SHEP-control			
